Reference: patent publication US20230023092A1, “TREATMENT OF DEPRESSION AND OTHER VARIOUS DISORDERS WITH PSILOCYBIN” (COMPASS […], priority 2019, published 2023)

System: healthy subjects
Test: Phase 1 study: adverse events (TEAEs, MedDRA coded)
Type: in vivo, human
Description: A Phase 1 randomized, double-blind, placebo-controlled study to evaluate the effect of psilocybin on cognitive and emotional processing as compared to placebo in healthy volunteers was conducted. The study investigated the short-term (Day 7) and long-term (Day 28) effects of moderate (10 mg) and high doses (25 mg) of psilocybin on key domains of cognition, such as episodic memory, attention, working and spatial memory, social cognition and elements of executive function, including cognitive flexibility.
Each subject was assigned 1 treatment bottle containing 5 capsules packaged in a double-blind fashion, depending on the randomized treatment arm, the bottle contained one of the following: • a. Psilocybin 10 mg: 2×5-mg oral psilocybin capsules plus 3×placebo capsules • b. Psilocybin 25 mg: 5×5-mg oral psilocybin capsules • c. Placebo: 5×placebo capsules
Each 5-mg oral psilocybin capsules comprised 5 mg crystalline psilocybin in the form or Polymorph A, 12.5 mg of SMCC 50, 79.5 mg of SMCC 90, 1 mg sodium starch glycolate, 1 mg colloidal silicon dioxide, and 1 mg sodium stearyl fumarate
Adverse events: Throughout the course of the study, all AEs were monitored and recorded. Each AE was classified according to the following criteria: • i. […] Moderate: The AE produces some impairment of functioning, but is not hazardous to the subject's health. • iii. Severe: The AE produces significant impairment of functioning or incapacitation and is a definite hazard to the subject's health.
Visit 3 (V3): Drug Administration (Day 0): The subject was asked to eat a light breakfast at least two hours prior to coming to the clinic for study drug administration. On Day 0 (V3), the subject underwent the SSTS, had vital signs obtained, medications reviewed, AEs recorded and eligibility reviewed prior to being randomized to study drug. The study drug was administered to up to six subjects simultaneously in individual beds separated by a curtain. The subject was invited to put on eyeshades and headphones, lie down and listen to calming music for the rest of the session (six hours). The subject was supported 1:1 with a chaperone and supervised by the study psychiatrist and lead therapist.
During administration of psilocybin, each subject received one-on-one support from a trained assisting therapist and each dosing session was supervised by a study psychiatrist and a lead therapist. The study drug was administered simultaneously to up to six participants as a single 5-capsule oral dose (10 mg psilocybin: 2×5-mg psilocybin capsules plus 3×placebo capsules; 25 mg psilocybin: 5×5-mg psilocybin capsules; placebo: 5×placebo capsules). Twenty-five dosing sessions were completed, with up to six participants dosed simultaneously per session. Each session lasted approximately 6 to 8 hours with subjects encouraged to relax and engage in introspection for the duration. After the acute effects of the study drug had subsided, subjects were discharged.

## CN(C)CCc1c[nH]c2cccc(OP(=O)(O)O)c12 [Psilocybin, psilocybin]
10 mg and 25 mg oral, 12-week study
  Serious adverse events or adverse events that led to withdrawal: no serious adverse events or adverse events that led to withdrawal
10 mg oral
  AEs deemed potentially related to study treatment, % of AEs of the arm: 92.6%
  Affect lability, Events: 5
  Affect lability, N (%): 5 (16.7)
  Affect lability, worst severity Mild, Events: 3
  Affect lability, worst severity Mild, N (%): 3 (10.0)
  Affect lability, worst severity Moderate, Events: 2
  Affect lability, worst severity Moderate, N (%): 2 (6.7)
  Affect lability, worst severity Severe, Events: 0
  Affect lability, worst severity Severe, N (%): 0
  Any Selected TEAE, Events: 106
  Any Selected TEAE, N (%): 27 (90.0)
  Any TEAE leading to death, Events: 0
  Any TEAE leading to death, N (%): 0
  Any TEAE leading to study discontinuation, Events: 0
  Any TEAE leading to study discontinuation, N (%): 0
  Any TEAE related to study treatment, Events: 188
  Any TEAE related to study treatment, N (%): 29 (96.7)
  Any TEAE, Events: 203
  Any TEAE, N (%): 29 (96.7)
  Any TEAE, worst severity Mild, Events: 12
  Any TEAE, worst severity Mild, N (%): 6 (20.0)
  Any TEAE, worst severity Moderate, Events: 38
  Any TEAE, worst severity Moderate, N (%): 13 (43.3)
  Any TEAE, worst severity Severe, Events: 22
  Any TEAE, worst severity Severe, N (%): 10 (33.3)
  Any serious TEAE related to study treatment, Events: 0
  Any serious TEAE related to study treatment, N (%): 0
  Any serious TEAE, Events: 0
  Any serious TEAE, N (%): 0
  Any severe TEAE, Events: 22
  Any severe TEAE, N (%): 10 (33.3)
  Change in sustained attention, Events: 2
  Change in sustained attention, N (%): 2 (6.7)
  Depressed mood, Events: 1
  Depressed mood, N (%): 1 (3.3)
  Dissociative identity disorder, Events: 2
  Dissociative identity disorder, N (%): 1 (3.3)
  Emotional disorder, Events: 2
  Emotional disorder, N (%): 2 (6.7)
  Emotional disorder, worst severity Mild, Events: 1
  Emotional disorder, worst severity Mild, N (%): 1 (3.3)
  Emotional disorder, worst severity Moderate, Events: 1
  Emotional disorder, worst severity Moderate, N (%): 1 (3.3)
  Emotional disorder, worst severity Severe, Events: 0
  Emotional disorder, worst severity Severe, N (%): 0
  Euphoric mood, Events: 7
  Euphoric mood, N (%): 7 (23.3)
  Euphoric mood, worst severity Mild, Events: 0
  Euphoric mood, worst severity Mild, N (%): 0
  Euphoric mood, worst severity Moderate, Events: 6
  Euphoric mood, worst severity Moderate, N (%): 6 (20.0)
  Euphoric mood, worst severity Severe, Events: 1
  Euphoric mood, worst severity Severe, N (%): 1 (3.3)
  Fatigue, Events: 10
  Fatigue, N (%): 9 (30.0)
  Fatigue, worst severity Mild, Events: 6
  Fatigue, worst severity Mild, N (%): 6 (20.0)
  Fatigue, worst severity Moderate, Events: 3
  Fatigue, worst severity Moderate, N (%): 2 (6.7)
  Fatigue, worst severity Severe, Events: 1
  Fatigue, worst severity Severe, N (%): 1 (3.3)
  Feeling abnormal, Events: 4
  Feeling abnormal, N (%): 4 (13.3)
  Feeling abnormal, worst severity Mild, Events: 3
  Feeling abnormal, worst severity Mild, N (%): 3 (10.0)
  Feeling abnormal, worst severity Moderate, Events: 1
  Feeling abnormal, worst severity Moderate, N (%): 1 (3.3)
  Feeling abnormal, worst severity Severe, Events: 0
  Feeling abnormal, worst severity Severe, N (%): 0
  Feeling of relaxation, Events: 5
  Feeling of relaxation, N (%): 3 (10.0)
  Gastrointestinal disorders, Events: 4
  Gastrointestinal disorders, N (%): 4 (13.3)
  Gastrointestinal disorders, worst severity Mild, Events: 3
  Gastrointestinal disorders, worst severity Mild, N (%): 3 (10.0)
  Gastrointestinal disorders, worst severity Moderate, Events: 1
  Gastrointestinal disorders, worst severity Moderate, N (%): 1 (3.3)
  Gastrointestinal disorders, worst severity Severe, Events: 0
  Gastrointestinal disorders, worst severity Severe, N (%): 0
  General disorders and administration site conditions, Events: 27
  General disorders and administration site conditions, N (%): 17 (56.7)
  General disorders and administration site conditions, worst severity Mild, Events: 17
  General disorders and administration site conditions, worst severity Mild, N (%): 13 (43.3)
  General disorders and administration site conditions, worst severity Moderate, Events: 6
  General disorders and administration site conditions, worst severity Moderate, N (%): 3 (10.0)
  General disorders and administration site conditions, worst severity Severe, Events: 1
  General disorders and administration site conditions, worst severity Severe, N (%): 1 (3.3)
  Hallucination, Events: 3
  Hallucination, N (%): 3 (10.0)
  Hallucination, auditory, Events: 4
  Hallucination, auditory, N (%): 4 (13.3)
  Hallucination, auditory, worst severity Mild, Events: 1
  Hallucination, auditory, worst severity Mild, N (%): 1 (3.3)
  Hallucination, auditory, worst severity Moderate, Events: 1
  Hallucination, auditory, worst severity Moderate, N (%): 1 (3.3)
  Hallucination, auditory, worst severity Severe, Events: 2
  Hallucination, auditory, worst severity Severe, N (%): 2 (6.7)
  Hallucination, gustatory, Events: 1
  Hallucination, gustatory, N (%): 1 (3.3)
  Hallucination, olfactory, Events: 1
  Hallucination, olfactory, N (%): 1 (3.3)
  Hallucination, tactile, Events: 2
  Hallucination, tactile, N (%): 2 (6.7)
  Hallucination, visual, Events: 20
  Hallucination, visual, N (%): 18 (60.0)
  Hallucination, visual, worst severity Mild, Events: 3
  Hallucination, visual, worst severity Mild, N (%): 3 (10.0)
  Hallucination, visual, worst severity Moderate, Events: 8
  Hallucination, visual, worst severity Moderate, N (%): 8 (26.7)
  Hallucination, visual, worst severity Severe, Events: 7
  Hallucination, visual, worst severity Severe, N (%): 7 (23.3)
  Hallucination, worst severity Mild, Events: 0
  Hallucination, worst severity Mild, N (%): 0
  Hallucination, worst severity Moderate, Events: 3
  Hallucination, worst severity Moderate, N (%): 3 (10.0)
  Hallucination, worst severity Severe, Events: 0
  Hallucination, worst severity Severe, N (%): 0
  Headache, Events: 12
  Headache, N (%): 9 (30.0)
  Headache, worst severity Mild, Events: 12
  Headache, worst severity Mild, N (%): 9 (30.0)
  Headache, worst severity Moderate, Events: 0
  Headache, worst severity Moderate, N (%): 0
  Headache, worst severity Severe, Events: 0
  Headache, worst severity Severe, N (%): 0
  Hypoaesthesia, Events: 2
  Hypoaesthesia, N (%): 2 (6.7)
  Hypoaesthesia, worst severity Mild, Events: 2
  Hypoaesthesia, worst severity Mild, N (%): 2 (6.7)
  Hypoaesthesia, worst severity Moderate, Events: 0
